Experiments:
Male Sprague Dawley rats [1] = test: Thermal hyperalgesia (Hargreaves paw-withdrawal latency) in rats with chronic s.c. morphine or saline infusion; assay type: in vivo, rat; settings: for effect on hindpaw withdrawal latencies when given alone: daily i.th 3 μM/day, saline-infused rats, vs vehicle group; for development of morphine-induced hyperalgesia: daily i.th for 6 days with s.c. morphine infusion, Myr 0.3, FB1 1, D609 1, DMS 0.3, SK-1 0.3 μM/day; for effect on paw-withdrawal latencies: drug alone vs Veh-Sal; for effect on paw-withdrawal latencies / Paw-Withdrawal Latency: day 6; for Paw-Withdrawal Latency: drug given alone i.th daily over 6 days to saline-infused rats, mean ± SEM
Method: (§1) Osmotic pump implantation. Rats, under light isoflurane anesthesia, were subcutaneously implanted (in the interscapular region) with osmotic pumps (Alzet 2001; Alza, Mountain View Calif.), to deliver saline at 1 μl/h or morphine at 75 μg μl^−1h^−1 over 7 days as described (Vera-Portocarrero et al., 2006). Minipumps were filled according to manufacturer's specifications. The use of the osmotic pump ensures a continuous delivery of morphine avoiding intermittent periods of withdrawal. The integrity of the pump delivery system was reexamined at the end of each experiment when the spinal cords were harvested.
(§2) Drug administration. The test substances fumonisin B1 (FB 1, Sigma-Aldrich, St. Louis, Mo.), myriocin (Myr Sigma-Aldrich, St. Louis, Mo.), D609 (Tricyclodecan-9-ylxanthogenate, K; Calbiochem, San Diego, Calif.), DMS (N,N-Dimethylsphingosine, Caymen Chemical, Ann Arbor, Mich.), SK-I 2-(p-hydroxyanilino)-4-(p-chlorophenyl) thiazole, Calbiochem, San Diego, Calif.) or their vehicle (0.5% in DMSO) were delivered by intrathecal (i.th) injection in rats chronically implanted with i.th cannulas as described previously (Storkson et al., 1996). Test substances were injected i.th once a day for 6 days in a total volume of 10 μl followed by a 10 μl flush with sterile physiological saline.
Behavioral tests. Thermal hyperalgesia. The method of Hargreaves and colleagues was used to assess changes in baseline nociceptive responses to a thermal nociceptive stimulus (Hargreaves et al., 1988). Animals were allowed to acclimate within a Plexiglas enclosure on a clear glass plate in a quiet testing room. A radiant heat source is focused onto the plantar aspect of the hindpaw with baseline latencies of 18-20 sec. and a maximal cutoff time of 20 sec to prevent tissue damage. The paw-withdrawal latency is determined by a motion detector activated by the paw withdrawal, stopping a timer. Foot withdrawal latencies were taken on the day before implantation of the minipumps (baseline) and subsequently on days 1, 3 and 6 of the experimental period to determine whether morphine-tolerant animals develop increased sensitivity to thermal stimulation. A significant (P<0.05) reduction in paw-withdrawal latency over time and before implantation of the osmotic minipump is characterized as thermal hyperalgesia. […]

Male Sprague Dawley rats [2] = test: Antinociceptive tolerance (tail flick after acute morphine) in rats with chronic s.c. morphine or saline infusion; assay type: in vivo, rat; settings: for effect on tail flick latencies when given alone: daily i.th 3 μM/day, saline-infused rats, vs vehicle group; for development of morphine antinociceptive tolerance: daily i.th for 6 days with s.c. morphine infusion, Myr 0.3, FB1 1, D609 1, DMS 0.3, SK-1 0.3 μM/day; for effect on antinociceptive responses to acute morphine: drug alone vs Veh-Sal; for effect on antinociceptive responses to acute morphine / % MPE (Tail-flick): day 6; for % MPE (Tail-flick): drug given alone i.th daily over 6 days to saline-infused rats, response to acute morphine, mean ± SEM
Method: as §1, §2
After the Hargreave's test, the development of antinociceptive tolerance was determined in all animals as follows. Acute nociception. The tail flick test which measures, withdrawal latencies of the tail from a noxious radiant heat source was used to measure thermal nociceptive sensitivity with baseline latencies of 4-5 sec and it cut-off time of 10 sec to prevent tissue injury (D'Amour, 1941). […]. Test substances or vehicle were given on day 0-6 after completion of the behavioral tests. At the required time points, after the behavioral tests, spinal cord tissues from the lumbar, enlargement segment of the spinal cord (L4-L6) and dorsal horn tissues were removed and tissues processed for immunohistochemical, Western blot and biochemical analysis. All experiments were conducted with the experimenters blinded to treatment conditions. […]

S1P = S1P levels in dorsal horn tissue by ELISA; assay type: in vivo, rat
S1P5 = S1P5 (Homo sapiens, UniProt Q9H228); settings: relative to S1P1; cited from earlier work
S1P2 = S1P2 (Homo sapiens, UniProt O95136); settings: cited from earlier work
Male Sprague Dawley rats [3] = test: Paclitaxel-induced neuropathic pain (mechano-allodynia, mechano-hyperalgesia); assay type: in vivo, rat
Method: Paclitaxel-Induced: Paclitaxcel-induced pain was studied by means of the well-characterized rat model developed by Bennett in which repeated intraperitoneal (i.p) injections of low doses of paclitaxel are administered to induce neuropathic pain (methano-allodynia and mechano-hyperalgesia) with little systemic toxicity or motor impairment (Polomano et al., Pain 94, 293-304 (2001)). The behavioral responses last for several weeks to months, thus modeling painful neuropathies in patients. Paclitaxel (Parentapharm. Yardley, Pa.) or its vehicle (Cremophor EL and 95% dehydrated ethanol in 1:1 ratio) was injected i.p in rats on four alternate days (day 0, 2, 4 and 6 with a final cumulative dose of 4 mg/kg). MnTE-2-PyP^5+, W146 (source), W140 (source) or their vehicle were delivered by intrathecal (i.th) injection (total volume of 10 μl followed by a 10 μl flush with sterile physiological saline) in rats chronically implanted with i.th cannulas using the L5/L6 lumbar approach, as described previously and Commonly used for drug delivery (Ramos et al. Neuroscience 169, 1888-1900 (2010); Schoeniger-Skinner, Brain Behav Immun 21, 660-667 (2007); Doyle, et al. Neurosci Lett (2010)). Drugs were injected 30 min before paclitaxel or its vehicle from day (D) 0 and then daily up to D15. In another set of experiments, Fingolimod (Fingolimod, Cayman Chemicals, Ann Arbor, Mich.) or its vehicle (1.2% ethanol in saline) were given by intraperitoneal injection (i.p., 0.2 ml) from D0 to D15; behavioral testing was carried out on D0 and at baseline and subsequently on D12, D16 and D22.
Behavioral testing: Baseline values were taken from all rats on day 0 Baseline. Drugs or vehicles under investigation were then given, followed 30 min later by a chemotherapeutic or vehicle. Behavioral testing was subsequently carried out on D12, D16 and D22.
Mechano-Allodynia and mechano-hyperalgesia: Mechanical withdrawal thresholds were assessed with an automated electronic version of the von Frey test (dynamic plantar aesthesiometer, model 37450; Ugo Basile, Milan, Italy). Each rat was placed in a Plexiglas chamber (28×40×35-cm, wire mesh floor) and allowed to acclimate for fifteen minutes. […] The pressure evoking a clear voluntary hind-paw withdrawal response (normally 40-45 g) was recorded automatically and taken as the mechanical threshold index. Mechanical threshold was assessed three times at each time point to yield a mean value, which is reported as mean absolute threshold (grams, g). […] Mechanical-hyperalgesia was assessed by the Randall and Sellitto paw pressure test 6 using an Ugo-Basile analgesiometer, which applies a linearly increasing mechanical force to the dorsum of the rat's hind paw. […]

rats [4] = test: Carrageenan-induced thermal hyperalgesia; assay type: in vivo, rat
rats [5] = test: Ceramide-induced thermal hyperalgesia (intraplantar); assay type: in vivo, rat
[6] = S1P-induced thermal hyperalgesia (intraplantar); assay type: in vivo; settings: intraplantar W146 15 minutes before intraplantar S1P
rats [7] = test: Antinociceptive response to acute morphine (tail flick latency); assay type: in vivo, rat; settings: W146 1 pM i.th 15 min before morphine 1, 3 or 6 mg/kg i.p; tail flick 30 min after morphine
Method: Acute nociception. The tail flick test, which measures withdrawal latencies of the tail from a noxious radiant heat source, was used to measure thermal nociceptive sensitivity with baseline latencies of 2-3 sec and a cut-off time of 10 sec to prevent tissue injury (D'Amour, J Pharmacol Exp Ther 72, 74-79 (1941)). […] Test substances or vehicle were given on day 0 through 6 after completion of the behavioral tests.
(§3) Tail flick latency (s) was tested before and 30 min after morphine (FIG. 26).

rats [8] = settings: rat, in vivo
Method: as §3

[9] = biological target: S1P1 subtype, human receptor (Homo sapiens, UniProt P21453); settings: GTP-γS binding assay; cited from earlier work
murine S1P1 subtype = murine S1P1 subtype (Mus musculus, UniProt O08530); settings: cited from earlier work
[10] = tested on: other known S1P receptor subtypes; settings: at doses as high as 10-20 μM; cited from earlier work
[11] = Carrageenan-induced inflammation; assay type: in vivo; settings: intraplantar injection 15 min before carrageenan
Male Sprague Dawley rats [12] = test: Antinociceptive tolerance (tail flick after acute morphine) in rats with chronic s.c. morphine or saline infusion; assay type: in vivo, rat; settings: acute i.th injection; n=4, not shown
[13] = 3 μM/day i.th co-administered with morphine infusion
[14] = daily intrathecal, W146 0.3-3 μM/day, W140 3 μM/day

Sequence of S1P5 (Q9H228 whole entry, species assumed): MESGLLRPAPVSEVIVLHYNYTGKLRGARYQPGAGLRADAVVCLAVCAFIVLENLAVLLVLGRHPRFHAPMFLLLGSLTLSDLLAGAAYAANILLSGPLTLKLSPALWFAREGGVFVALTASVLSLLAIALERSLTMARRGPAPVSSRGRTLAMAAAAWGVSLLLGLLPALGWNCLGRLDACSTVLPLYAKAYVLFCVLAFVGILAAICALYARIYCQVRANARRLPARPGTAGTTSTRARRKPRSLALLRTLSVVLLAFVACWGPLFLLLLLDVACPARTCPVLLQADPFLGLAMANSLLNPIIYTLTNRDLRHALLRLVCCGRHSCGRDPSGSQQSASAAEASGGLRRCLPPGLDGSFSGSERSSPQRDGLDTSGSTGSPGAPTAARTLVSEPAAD
Sequence of murine S1P1 subtype (O08530 whole entry): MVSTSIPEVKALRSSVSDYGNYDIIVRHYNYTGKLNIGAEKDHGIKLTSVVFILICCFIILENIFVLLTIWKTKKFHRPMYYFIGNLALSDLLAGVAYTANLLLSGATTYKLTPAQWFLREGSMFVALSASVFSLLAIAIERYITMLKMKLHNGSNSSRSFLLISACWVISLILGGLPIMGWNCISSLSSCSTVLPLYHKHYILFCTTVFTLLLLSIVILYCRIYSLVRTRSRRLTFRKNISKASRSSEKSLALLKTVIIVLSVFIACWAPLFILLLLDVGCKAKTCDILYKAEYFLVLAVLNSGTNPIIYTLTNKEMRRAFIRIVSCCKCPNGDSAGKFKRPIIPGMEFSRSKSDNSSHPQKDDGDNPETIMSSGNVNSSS
Sequence of S1P2 (O95136 whole entry, species assumed): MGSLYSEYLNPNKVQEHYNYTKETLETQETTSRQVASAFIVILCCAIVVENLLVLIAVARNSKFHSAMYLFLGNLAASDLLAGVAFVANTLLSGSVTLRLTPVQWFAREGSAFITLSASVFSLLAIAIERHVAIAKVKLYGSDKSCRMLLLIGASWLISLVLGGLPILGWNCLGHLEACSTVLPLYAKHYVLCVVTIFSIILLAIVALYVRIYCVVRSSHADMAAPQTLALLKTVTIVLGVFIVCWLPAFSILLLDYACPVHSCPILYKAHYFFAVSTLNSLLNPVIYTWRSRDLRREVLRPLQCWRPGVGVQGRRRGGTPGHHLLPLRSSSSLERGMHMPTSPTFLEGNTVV
Sequence of S1P1 subtype, human receptor (P21453 whole entry): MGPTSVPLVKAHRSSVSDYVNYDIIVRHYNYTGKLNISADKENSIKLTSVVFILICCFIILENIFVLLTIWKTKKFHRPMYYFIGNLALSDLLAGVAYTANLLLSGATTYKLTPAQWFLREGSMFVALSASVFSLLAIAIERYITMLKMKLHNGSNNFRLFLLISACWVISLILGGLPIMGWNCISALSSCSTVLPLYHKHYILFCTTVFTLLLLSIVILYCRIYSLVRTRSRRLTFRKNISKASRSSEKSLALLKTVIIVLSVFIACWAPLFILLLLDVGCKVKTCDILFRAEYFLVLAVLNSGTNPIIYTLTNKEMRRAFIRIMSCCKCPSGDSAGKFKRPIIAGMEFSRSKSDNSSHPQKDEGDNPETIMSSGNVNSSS

SMILES	development of morphine-induced hyperalgesia (Male Sprague Dawley rats [1])	effect on paw-withdrawal latencies (Male Sprague Dawley rats [1])	Paw-Withdrawal Latency (Male Sprague Dawley rats [1]) [s]	development of morphine antinociceptive tolerance (Male Sprague Dawley rats [2])	effect on antinociceptive responses to acute morphine (Male Sprague Dawley rats [2])	% MPE (Tail-flick) (Male Sprague Dawley rats [2]) [%]	S1P (pg/mg tissue) (S1P; rat, in vivo)	morphine-induced increased production of S1P in dorsal horn tissues (S1P; rat, in vivo, sc)	also measured
CCCCCCc1cccc(NC(=O)[C@@H](N)CCP(=O)(O)O)c1 [W140]									effect on hindpaw withdrawal latencies when given alone (Male Sprague Dawley rats [1]): had no effect; effect on tail flick latencies when given alone (Male Sprague Dawley rats [2]): had no effect
CCCC[C@@H](C)[C@@H](OC(=O)C[C@@H](CC(=O)O)C(=O)O)[C@H](C[C@@H](C)C[C@H](O)CCCC[C@@H](O)C[C@H](O)[C@H](C)N)OC(=O)C[C@@H](CC(=O)O)C(=O)O [FB1, fumonisin B1]	blocked	did not affect	19 ± 0.8	blocked	did not affect	92 ± 3.2	1.4 ± 0.06	blocked	effect on S1P levels in spinal cord tissues (S1P; rat, in vivo): did not affect
CCCCCCCCc1ccc(CC[C@](N)(CO)COP(=O)(O)O)cc1 [Fingolimod-P]									binding affinity for S1P5 (S1P5): slightly lower affinity; binding affinity for S1P2 (S1P2): no reported affinity
CCCCCCc1cccc(NC(=O)[C@H](N)CCP(=O)(O)O)c1 [W146]									block of development of thermal hyperalgesia (Male Sprague Dawley rats [1]; [13]): > 90%; effect on hindpaw withdrawal latencies when given alone (Male Sprague Dawley rats [1]): had no effect; block of development of antinociceptive tolerance (Male Sprague Dawley rats [2]; [13]): > 90%; effect on tail flick latencies when given alone (Male Sprague Dawley rats [2]): had no effect; baseline withdrawal thresholds when given alone (Male Sprague Dawley rats [3]; W146 3 μM/day, highest dose tested): did not affect; development of paclitaxel-induced mechano-allodynia (Male Sprague Dawley rats [3]; [14]): attenuated in a dose-dependent manner; development of paclitaxel-induced mechano-hyperalgesia (Male Sprague Dawley rats [3]; [14]): attenuated in a dose-dependent manner; reversal of Paclitaxel-induced neuropathic pain (Male Sprague Dawley rats [3]; given i.p on day 16, behavioral testing 60 minutes later): reverses; carrageenan-induced hyperalgesia (rats [4]; W146, FIG. 14): blocks; effect when given alone (no ceramide) (rats [5]): had no effect; ceramide-induced thermal hyperalgesia (rats [5]; LT1002 242 μg, LT1017 286 μg, W146 0.3, 0.6 or 1.2 μg, W140 1.2 μg): inhibited; development of S1P-induced thermal hyperalgesia [6]: blocked; effect on dose-response to acute morphine (rats [7]): did not modify; observable side effects (rats [8]): No observable side effects; Ki [9]: ~80 nM; potency at the murine S1P1 subtype relative to human (murine S1P1 subtype): equipotency; antagonistic or agonistic activity against other S1P receptor subtypes [10]: No-antagonistic (or agonistic) activity
S=C([S-])OC1CC2CC1C1CCCC21.[K+] (stereo not drawn) [D609, Tricyclodecan-9-ylxanthogenate, K]	blocked	did not affect	19 ± 0.7	blocked	did not affect	92 ± 3.0	1.5 ± 0.06	blocked	effect on S1P levels in spinal cord tissues (S1P; rat, in vivo): did not affect
CCCCCCC(=O)CCCCCC/C=C/C[C@@H](O)[C@H](O)[C@@](N)(CO)C(=O)O [Myr, myriocin]	blocked	did not affect	19 ± 0.5	blocked	did not affect	91 ± 3.0	1.2 ± 0.05	blocked	effect on S1P levels in spinal cord tissues (S1P; drug alone vs Veh-Sal, day 6): did not affect
Oc1ccc(Nc2nc(-c3ccc(Cl)cc3)cs2)cc1 [SK-1, 2-(p-hydroxyanilino)-4-(p-chlorophenyl) thiazole]	blocked	did not affect	19 ± 0.7	blocked	did not affect	99 ± 0.9	1.3 ± 0.06		morphine-induced increased production of S1P in dorsal horn tissues (S1P; daily i.th for 6 days with s.c. morphine infusion, Myr 0.3, FB1 1, D609 1, DMS 0.3, SK-1 0.3 μM/day): blocked; effect on S1P levels in spinal cord tissues (S1P; drug alone vs Veh-Sal, day 6): did not affect; carrageenan-induced thermal hyperalgesia (rats [4]; intraplantar SK-1 250, 500 or 1000 ng): attenuated in a dose-dependent manner; carrageenan-induced inflammation [11]: blocks; reversal of tolerance once established (Male Sprague Dawley rats [12]): did not reverse

— patent US8945549B2, “Methods of treating antinociceptive tolerance” (Saint Louis University, priority 2010, dated 2015)
